Data: patent publication US12351580B2, “NLRP3 modulators” (Innate Tumor Immunity, Inc., priority 2017, dated 2025)

These compounds were tested against T1, TLR8 (Homo sapiens, UniProt Q9NR97) (assay: In vitro human TLR8 binding reporter assay (HEK-Blue, NF-kB/AP1-inducible SEAP)). Conditions: activity range symbols.
T1 construct: host or cells: HEK-Blue cells (human HEK) co-expressing TLR8 and an NF-kB/AP1-inducible SEAP reporter
T1 sequence (Q9NR97 27-1041): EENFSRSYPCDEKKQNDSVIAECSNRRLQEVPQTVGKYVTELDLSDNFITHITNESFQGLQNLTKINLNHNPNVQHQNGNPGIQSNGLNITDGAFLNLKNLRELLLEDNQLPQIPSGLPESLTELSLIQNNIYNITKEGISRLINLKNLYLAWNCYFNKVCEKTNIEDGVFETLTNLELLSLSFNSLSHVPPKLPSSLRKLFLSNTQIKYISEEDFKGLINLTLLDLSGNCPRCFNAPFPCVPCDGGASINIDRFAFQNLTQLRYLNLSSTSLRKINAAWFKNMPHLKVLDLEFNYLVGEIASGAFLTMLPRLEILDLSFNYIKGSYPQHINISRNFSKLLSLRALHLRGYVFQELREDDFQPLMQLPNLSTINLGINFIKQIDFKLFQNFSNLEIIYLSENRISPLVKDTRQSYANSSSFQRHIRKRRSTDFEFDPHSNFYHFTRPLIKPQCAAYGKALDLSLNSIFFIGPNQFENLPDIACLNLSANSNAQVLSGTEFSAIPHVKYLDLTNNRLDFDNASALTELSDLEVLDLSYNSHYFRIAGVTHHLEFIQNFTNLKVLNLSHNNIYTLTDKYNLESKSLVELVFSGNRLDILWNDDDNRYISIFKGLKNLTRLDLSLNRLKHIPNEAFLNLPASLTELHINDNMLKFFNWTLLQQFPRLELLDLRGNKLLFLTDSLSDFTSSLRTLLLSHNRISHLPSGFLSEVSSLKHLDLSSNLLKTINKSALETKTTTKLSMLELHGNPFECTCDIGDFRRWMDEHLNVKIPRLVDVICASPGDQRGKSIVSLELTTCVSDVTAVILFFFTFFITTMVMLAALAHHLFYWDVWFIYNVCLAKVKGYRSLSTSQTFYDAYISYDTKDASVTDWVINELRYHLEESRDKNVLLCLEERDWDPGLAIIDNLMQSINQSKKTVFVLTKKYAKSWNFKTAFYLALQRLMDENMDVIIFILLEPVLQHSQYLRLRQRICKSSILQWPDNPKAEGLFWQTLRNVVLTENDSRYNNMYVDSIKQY
Format: cell-based
Description: In Vitro Human TLR7 and TLR8 Binding Reporter Assays
Logarithmically-growing human HEK-Blue cells co-expressing a TLR7 or TLR8 gene and a NF-kB/AP1-inducible SEAP (secreted embryonic alkaline phosphatase; Invivogen, San Diego, CA) reporter gene are added to individual wells of a 384-well plate (15,000 cells per 20 μL per well) and maintained for 24 h at 37° C., 5% CO2. Test compounds or DMSO are distributed to separate wells the next day using acoustic liquid handling technology (100 nL per well) and cells are subsequently incubated for 18 h at 37° C., 5% CO2. Cellular SEAP production is measured using an Envision plate reader instrument thirty minutes after adding freshly-made Quanti-Blue reagent (prepared by following manufacturer instructions; Invivogen, San Diego, CA) to the HEK-Blue TLR Nf-kB-SEAP cell reactions. All EC50 values (half-maximal effective concentration) are determined using proprietary data analysis software.

| SMILES | EC50 |
| --- | --- |
| Nc1nc2cc(-n3cccn3)ccc2c2[nH]c(CN3CC(c4ccccc4)CC3=O)nc12 (stereo not shown) [Compound 103] | > 100 µM |
| CCN(Cc1nc2c(N)nc3cc(C)ccc3c2[nH]1)C(C)=O [Compound 104] | > 100 µM |
| CCNCc1nc2c(N)nc3cc(-c4cc[nH]n4)ccc3c2n1C [Compound 106, 2-((Ethylamino)methyl)-1-methyl-7-(1H-pyrazol-3-yl)-1H-imidazo[4,5-c]quinolin-4-amine] | > 100 µM |
| CCN(Cc1nc2c(N)nc3cc(-n4cccn4)ccc3c2[nH]1)S(C)(=O)=O [Compound 108, N-((4-Amino-7-(1H-pyrazol-1-yl)-1H-imidazo[4,5-c]quinolin-2-yl)methyl)-N-ethylmethanesulfonamide] | > 100 µM |
| CCN(Cc1nc2c(N)nc3cc(-c4cc[nH]n4)ccc3c2[nH]1)C(=O)OC(C)(C)C [Compound 109, tert-Butyl ((4-amino-7-(1H-pyrazol-3-yl)-1H-imidazo[4,5-c]quinolin-2-yl)methyl)(ethyl)carbamate] | > 100 µM |
| CCN(Cc1nc2c(N)nc3cc(-c4cc[nH]n4)ccc3c2[nH]1)C(=O)N(C)C [Compound 110, 1-((4-Amino-7-(1H-pyrazol-3-yl)-1H-imidazo[4,5-c]quinolin-2-yl)methyl)-1-ethyl-3,3-dimethylurea] | > 100 µM |
| Nc1nc2cc(C(F)(F)F)ccc2c2[nH]c(CN3CCCC3=O)nc12 [Compound 163] | > 100 µM |
| CCN(Cc1nc2c(N)nc3ccccc3c2n1CCCC(=O)OC)C(C)=O [Compound 164] | > 100 µM |
| CCN(Cc1nc2c(N)nc3cc(-c4ccccc4)ccc3c2[nH]1)C(C)=O [Compound 165, N-[(4-amino-7-phenyl-1H-imidazo[4,5-c]quinolin-2-yl)methyl]-N-ethylacetamide] | > 100 µM |
| CCN(Cc1nc2c(N)nc3cc(-c4cccnc4)ccc3c2[nH]1)C(C)=O [Compound 166, N-[(4-amino-7-pyridin-3-yl-1H-imidazo[4,5-c]quinolin-2-yl)methyl]-N-ethylacetamide] | > 100 µM |
| CCN(Cc1nc2c(N)nc3cc(-c4ccncc4)ccc3c2[nH]1)C(C)=O [Compound 167, N-[(4-amino-7-pyridin-4-yl-1H-imidazo[4,5-c]quinolin-2-yl)methyl]-N-ethylacetamide] | > 100 µM |
| CCN(Cc1nc2c(N)nc3cc(-c4cc(C)nn4C)ccc3c2[nH]1)C(C)=O [Compound 168, N-[[4-amino-7-(2,5-dimethylpyrazol-3-yl)-1H-imidazo[4,5-c]quinolin-2-yl]methyl]-N-ethylacetamide] | > 100 µM |
| CCCn1cc(-c2ccc3c(c2)nc(N)c2nc(CN(CC)C(C)=O)[nH]c23)cn1 [Compound 169, N-[[4-amino-7-(1-propylpyrazol-4-yl)-1H-imidazo[4,5-c]quinolin-2-yl]methyl]-N-ethylacetamide] | > 100 µM |
| CCN(Cc1nc2c(N)nc3cc(C(C)C)ccc3c2[nH]1)C(C)=O [Compound 170, N-[(4-amino-7-propan-2-yl-1H-imidazo[4,5-c]quinolin-2-yl)methyl]-N-ethylacetamide] | > 100 µM |
| CCc1ccc2c(c1)nc(N)c1nc(CN(CC)C(C)=O)[nH]c12 [Compound 171, N-[(4-amino-7-ethyl-1H-imidazo[4,5-c]quinolin-2-yl)methyl]-N-ethylacetamide] | > 100 µM |
| CCCc1ccc2c(c1)nc(N)c1nc(CN(CC)C(C)=O)[nH]c12 [Compound 172, N-[(4-amino-7-propyl-1H-imidazo[4,5-c]quinolin-2-yl)methyl]-N-ethylacetamide] | > 100 µM |
| CCN(Cc1nc2c(N)nc3cc(C4CCCC4)ccc3c2[nH]1)C(C)=O [Compound 173, N-[(4-amino-7-cyclopentyl-1H-imidazo[4,5-c]quinolin-2-yl)methyl]-N-ethylacetamide] | > 100 µM |
| CCN(Cc1nc2c(N)nc3cc(-c4cccnc4F)ccc3c2[nH]1)C(C)=O [Compound 175, N-[[4-amino-7-(2-fluoropyridin-3-yl)-1H-imidazo[4,5-c]quinolin-2-yl]methyl]-N-ethylacetamide] | > 100 µM |
| CCN(Cc1nc2c(N)nc3ccccc3c2[nH]1)C(C)=O [Compound 176] | > 100 µM |
| CCN(Cc1nc2c(N)nc3cc(Br)ccc3c2[nH]1)C(C)=O [Compound 177] | > 100 µM |
| CCN(Cc1nc2c(N)nc3cc(Cl)ccc3c2[nH]1)C(C)=O [Compound 179, N-[(4-amino-7-chloro-1H-imidazo[4,5-c]quinolin-2-yl)methyl]-N-ethylacetamide] | > 100 µM |
| CCN(Cc1nc2c(N)nc3cc(-n4cccn4)ccc3c2[nH]1)C(C)=O [Compound 180, N-[(4-amino-7-pyrazol-1-yl-1H-imidazo[4,5-c]quinolin-2-yl)methyl]-N-ethylacetamide] | > 100 µM |
| CCN(Cc1nc2c(N)nc3cc(C4=CCCC4)ccc3c2[nH]1)C(C)=O [Compound 183] | > 100 µM |
| CC(=O)N(C)Cc1nc2c(N)nc3ccccc3c2[nH]1 [Compound 187] | 20 to 100 µM |
| COC(=O)CCCn1c(CN(C)C(C)=O)nc2c(N)nc3ccccc3c21 [Compound 188] | > 100 µM |

| SMILES | EC50 |
| --- | --- |
| CCN(Cc1nc2c(N)nc3cc(C4CC4)ccc3c2n1Cc1ccc(OC)cc1)C(C)=O [Compound 190] | > 100 µM |
| CCN(Cc1nc2c(N)nc3ccccc3c2n1CCCNC(=O)OC(C)(C)C)C(C)=O [Compound 191] | > 100 µM |
| CCN(Cc1nc2c(N)nc3ccc(Br)cc3c2[nH]1)C(C)=O [Compound 194] | > 100 µM |
| CCN(Cc1nc2c(N)nc3cc(N4CCNC4=O)ccc3c2n1Cc1ccc(OC)cc1)C(C)=O [Compound 196] | > 100 µM |
| CCN(Cc1nc2c(N)nc3ccc(Cl)cc3c2[nH]1)C(C)=O [Compound 197] | > 100 µM |
| CCOC(=O)c1cc2c(cc1Br)nc(N)c1nc(CN(CC)C(C)=O)[nH]c12 [Compound 198] | > 100 µM |
| CCN(Cc1nc2c(N)nc3ccc(Br)cc3c2[nH]1)C(=O)OC [Compound 200] | > 100 µM |
| CCN(Cc1nc2c(N)nc3ccc(Br)cc3c2[nH]1)S(C)(=O)=O [Compound 201] | > 100 µM |
| CCN(Cc1nc2c(N)nc3ccc(Br)cc3c2[nH]1)S(=O)(=O)c1ccc(C)cc1 [Compound 202] | > 100 µM |
| CCN(Cc1nc2c(N)nc3ccc(Br)cc3c2[nH]1)C(=O)C(C)C [Compound 203] | > 100 µM |
| CCN(Cc1nc2c(N)nc3ccc(Br)cc3c2[nH]1)C(=O)c1ccccc1 [Compound 204] | > 100 µM |
| CCN(Cc1nc2c(N)nc3ccccc3c2n1CCC(=O)N1CCOCC1)C(=O)OC(C)(C)C [Compound 205] | > 100 µM |
| CCN(Cc1nc2c(N)nc3ccc(-n4cccn4)cc3c2[nH]1)C(C)=O [Compound 207] | > 100 µM |
| CCN(Cc1nc2c(N)nc3cc(Br)ccc3c2n1CCCC(=O)N1CCN(C)CC1)C(C)=O [Compound 209] | > 100 µM |
| CCN(Cc1nc2c(N)nc3cc(Br)ccc3c2n1CCCC(=O)NC)C(C)=O [Compound 210] | > 100 µM |
| CCN(Cc1nc2c(N)nc3ccccc3c2n1CCC(=O)N1CCN(C(=O)OC(C)(C)C)CC1)C(=O)OC(C)(C)C [Compound 211] | > 100 µM |
| CCN(Cc1nc2c(N)nc3ccccc3c2n1CCC(=O)N1CCN(C(=O)OC(C)(C)C)CC1)C(C)=O [Compound 212] | > 100 µM |
| CCN(Cc1nc2c(N)nc3cc(Br)ccc3c2n1CCCC(=O)N(C)C)C(C)=O [Compound 213] | > 100 µM |
| CCN(Cc1nc2c(N)nc3cc(Br)ccc3c2n1CCCC(=O)N1CCOCC1)C(C)=O [Compound 214] | > 100 µM |
| CN(C)C(=O)CCCn1c(CN2CCCC2=O)nc2c(N)nc3cc(Br)ccc3c21 [Compound 215] | > 100 µM |
| COC(=O)CCCn1c(CN2CCCC2=O)nc2c(N)nc3cc(Cl)ccc3c21 [Compound 216] | > 100 µM |
| CCN(Cc1nc2c(N)nc3cc(Cl)ccc3c2n1CCCC(=O)NC)C(C)=O [Compound 217] | > 100 µM |
| CCN(Cc1nc2c(N)nc3cc(Br)ccc3c2n1CCCC(=O)OC)C(C)=O [Compound 218] | > 100 µM |
| CCN(Cc1nc2c(N)nc3cc(Cl)ccc3c2n1CCCC(=O)OC)C(C)=O [Compound 219] | > 100 µM |
